Consider four molecules from paper PMC7311426, “An amphipathic peptide with antibiotic activity against multidrug-resistant Gram-negative bacteria” (Nature Communications, 2020).

Experiment [1] relates to E. coli clinical isolates. In words: microbe, parasite or virus in culture. The essentials: (§1)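 MIC90 from CLSI broth microdilution (M07-A9) in two clinical-isolate panels. US panel (331 isolates, 2010-2012): AA139 diluted in 0.01% acetic acid/0.1% BSA. Worldwide panel (445 isolates, 2011-2013, four regions): CAMHB, with 0.002% Tween 80 added for AA139 and polymyxin B.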
Experiment [2] deals with K. pneumoniae clinical isolates. In words: microbe, parasite or virus in culture. The essentials: as §1
The test system of experiment [3] is P. aeruginosa clinical isolates. Kind of experiment: microbe, parasite or virus in culture. The essentials:
as §1

The test system of experiment [4] is E. coli AID#172. The class given is in vivo, E. coli in NMRI mice. The method, then: Peritonitis and UTI murine models were performed at the Department of Microbiology & Infection Control, Statens Serum Institute, Copenhagen, Denmark, under approval by the National Committee of Animal Ethics, Denmark, and adhered to the standards of EU Directive 2010/63/EU. The mouse pneumonia model was performed by Evotec Ltd, United Kingdom, under UK Home Office Licenses and with local ethical committee clearance. All animal studies were contracted by Adenium Biotech ApS.
Peptides were prepared in Ringer’s acetate pH 6.0 (vehicle) at 34 mg mL^−1. Comparator antibiotics included meropenem (Meronem®, AstraZeneca), polymyxin B sulfate (Sigma) and tobramycin (Novartis).
The E. coli peritonitis in vivo model was conducted using an E. coli AID#172 strain in female NMRI mice (Harlan) that were rendered neutropenic by injecting 0.5 mL cyclophosphamide solution (Apodan®) intraperitoneally for 4 days (~200 mg kg^−1) and 1 day (~100 mg kg^−1) prior to inoculation of infection. At time −1 h, mice were inoculated intraperitoneally with 0.5 mL of 2 × 10^6 CFU mL^−1 E. coli AID#172 suspension in the lateral lower quadrant of the abdomen. […] CFU counts were determined from blood and peritoneal fluid at 0 and 5 h after treatment. The mice were anesthetized with Zoletil® and blood was collected by axillary cut down. The mice were killed by cervical dislocation, a total of 2 mL sterile saline was injected i.p. and the abdomen gently massaged before it was opened, fluid sampled with a pipette, and collected for CFU counts on agar.

Experiment [5] has as its system P. aeruginosa (UNT138-1 & ATCC 27853). In words: microbe, parasite or virus in culture. The experiment is classed as cell-based, Pseudomonas aeruginosa. The method, then:
The test media was cation-adjusted MHB (CAMHB, Becton Dickinson) supplemented with 2% Noble Agar (Becton Dickinson) and additionally for AA139 with 0.1% BSA. The agar dilution MIC values were determined as recommended by Clinical and Laboratory Standards Institute (CLSI)[47]. […] The inoculum for the spontaneous mutation plates targeted 10^9 to 10^10 colony-forming units (CFU) per plate. The viable count of each suspension was determined by plating serial ten-fold dilutions onto MHB/NA in duplicate. In addition, agar plates without drug were inoculated as positive controls. Plates were inspected for growth at both 24 and 48 h. Colony counts were determined manually. Using the counts at 48 h, the spontaneous mutation frequency was calculated using the following equation: (average number of colonies from duplicate selection plates)/(total number of cells inoculated onto each plate). If there were no colonies on the antibiotic selection plates, the spontaneous mutation frequency was reported as less than the frequency observed with one colony to indicate that the spontaneous mutation frequency was less than the limit of detection (one CFU).

Experiment [6] concerns E. coli ATCC 25922. Kind of experiment: microbe, parasite or virus in culture. To be noted: for MIC, Survanta (5%) replicates: BMD with 5% Survanta lung surfactant. The class given is cell-based, Escherichia coli. More on the design: MIC, Survanta (5%) replicates: unit not given beside the values. In a few lines: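 Broth microdilution MIC in Mueller Hinton broth, 12-point 2-fold series from 128 or 64 down to 0.06 or 0.03 μg mL^−1, 5 × 10^5 CFU mL^−1 inoculum. Read visually after 18-20 h at 37 °C without shaking; n ≥ 6. Additional tests in CAMHB, and in MHB with 1% agarose.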

[7] abbreviates: Worldwide isolates 2011-2013, E. coli n = 112.
[8] abbreviates: Worldwide isolates 2011-2013, K. pneumoniae n = 114.
Where [9] appears, read: Worldwide isolates 2011-2013, P. aeruginosa n = 111.
The mark [10] stands for this setting: AA139 3.75 mg kg-1, Meropenem 40 mg kg-1, Dunnett's multiple comparisons test.
Where [11] appears, read: MDR E. coli AID #172, AA139 3.75 mg kg-1, Meropenem 40 mg kg-1, mean of n = 3.

In brackets after ≈: the same amount, converted by molar mass. Residues, ends and D or L forms follow the SMILES beside them. Bounds are passed on as bounds.

With `C[C@@H](O)[C@H]1C(=O)N2C(C(=O)O)=C(S[C@@H]3CN[C@H](C(=O)N(C)C)C3)[C@H](C)[C@H]12` [Meropenem, meropenem, reference compound], the MIC90 in experiment [1] (Escherichia coli, US isolates 2010–2012, E. coli MDR, n = 31) is 16 µg/mL (≈ 41.7 µM); in experiment [1] (Escherichia coli, US isolates 2010–2012, E. coli Non-MDR, n = 24), 0.03 µg/mL (≈ 0.0782 µM); in experiment [1] (setting [7]), 0.03 µg/mL (≈ 0.0782 µM); in experiment [2] (Klebsiella pneumoniae, US isolates 2010–2012, K. pneumoniae Non-MDR, n = 24), 0.06 µg/mL (≈ 0.156 µM); in experiment [2] (Klebsiella pneumoniae, US isolates 2010–2012, K. pneumoniae XDR, n = 55), over 16 µg/mL; in experiment [2] (setting [8]), over 16 µg/mL. For the same molecule, the MIC90 is 16 µg/mL (≈ 41.7 µM) in experiment [3] (Pseudomonas aeruginosa, US isolates 2010–2012, P. aeruginosa Non-MDR, n = 41); over 16 µg/mL in experiment [3] (Pseudomonas aeruginosa, US isolates 2010–2012, P. aeruginosa XDR, n = 37); over 16 µg/mL in experiment [3] (setting [9]). Moreover, the MIC50 was at most 0.015 µg/mL in experiment [1] (setting [7]), 0.03 µg/mL (≈ 0.0782 µM) in experiment [2] (setting [8]) and 1 µg/mL (≈ 2.61 µM) in experiment [3] (setting [9]). The “Change of CFU levels in peritoneal fluid and blood vs vehicle” value in experiment [4] (40 mg kg^−1 i.v., not statistically significant) is reported as “slight reduction”. In addition, in experiment [4] (setting [10]), the “Blood 5hr, Mean Diff. vehicle vs. treatment” value is on record as 0.6733. Further, the “PF 5hr, Mean Diff. vehicle vs. treatment” value in experiment [4] (setting [10]) was found to be 0.08333. Moreover, in experiment [4] (setting [11]), the “Blood 5hr bacterial load, Mean” value came out at 3.163. Moreover, the “PF 5 hr bacterial load, Mean” value in experiment [4] (setting [11]) came to 4.56.
`C[C@H]1COc2c(N3CCN(C)CC3)c(F)cc3c(=O)c(C(=O)O)cn1c23` [LEV, levofloxacin, reference compound]: the MIC in experiment [5] (Pseudomonas aeruginosa, ATCC27853, read-out: Agar (Noble) Dilution MIC, P. aeruginosa ATCC 27853) was 2 µg/mL (≈ 5.53 µM). Besides, the MIC90 in experiment [1] (Escherichia coli) was 16 µg/mL (≈ 44.3 µM); in experiment [1] (setting [7]), 16 µg/mL (≈ 44.3 µM); in experiment [2] (Klebsiella pneumoniae), over 32 µg/mL; in experiment [2] (setting [8]) it was over 32 µg/mL; in experiment [3] (Pseudomonas aeruginosa) it was over 32 µg/mL; in experiment [3] (setting [9]) it was over 32 µg/mL. The figures for the MIC50 in experiment [1] (setting [7]) and in experiment [2] (setting [8]) were 0.06 µg/mL (≈ 0.166 µM) and 0.25 µg/mL (≈ 0.692 µM), respectively.
Take colistin: the “MIC, Survanta (5%) replicates” value in experiment [6] (E. coli ATCC 25922, FDA control strain, replicate 1) is on record as 0.06; in experiment [6] (E. coli ATCC 25922, FDA control strain, replicate 2), 0.06; in experiment [6] (E. coli ATCC 25922, FDA control strain, replicate 3), at most 0.03; in experiment [6] (E. coli ATCC 25922, FDA control strain, replicate 4) it was at most 0.03. For the same molecule, the “MIC, Serum (50%)” value is at most 0.03 in experiment [6] (E. coli ATCC 25922, FDA control strain, BMD with 50% human serum, mode, or median where no mode, n=4 to 6, where n=2 differs the higher value) and at most 0.03 µg/mL in experiment [6] (E. coli ATCC 25922, MHB + 50% (v/v) human serum, n=2 to 6, mode or median). In addition, the “MIC, Serum (50%) replicates” value in experiment [6] (E. coli ATCC 25922, FDA control strain, BMD with 50% human serum, replicate 1) is reported as at most 0.03; in experiment [6] (E. coli ATCC 25922, FDA control strain, BMD with 50% human serum, replicate 2), at most 0.03; in experiment [6] (E. coli ATCC 25922, FDA control strain, BMD with 50% human serum, replicate 3), 0.125; in experiment [6] (E. coli ATCC 25922, FDA control strain, BMD with 50% human serum, replicate 4) it was 0.063; in experiment [6] (E. coli ATCC 25922, FDA control strain, BMD with 50% human serum, replicate 5), at most 0.03; in experiment [6] (E. coli ATCC 25922, FDA control strain, BMD with 50% human serum, replicate 6), at most 0.03. In addition, the “Agar (Noble) Dilution MIC” value in experiment [5] (P. aeruginosa ATCC 27853) was 2 µg/mL. Also, the “Noble agar dilution MIC” value in experiment [5] (P. aeruginosa ATCC 27853) and in experiment [5] (P. aeruginosa UNT138-1) was 2 µg/mL throughout.
In the case of `CC(C)[C@@H]1NC(=O)[C@H](Cc2ccc(O)cc2)NC(=O)[C@H](Cc2c[nH]c3ccccc23)NC(=O)[C@@H](NC(=O)[C@H](Cc2ccccc2)NC(=O)CN)CSSC[C@@H](C(=O)N[C@@H](CC(N)=O)C(=O)O)NC(=O)[C@H](CCCNC(=N)N)NC(=O)[C@H](CCCNC(=N)N)NC(=O)[C@H](Cc2ccc(O)cc2)NC(=O)[C@@H]2CSSC[C@H](NC1=O)C(=O)N[C@@H](C)C(=O)N[C@@H](CCCNC(=N)N)C(=O)N[C@@H](CCCNC(=N)N)C(=O)N[C@@H](CC(N)=O)C(=O)NCC(=O)N[C@@H](C)C(=O)N[C@@H](CCCNC(=N)N)C(=O)N[C@@H](C(C)C)C(=O)N2` [AA139] (HELM PEPTIDE1{G.F.C.W.Y.V.C.A.R.R.N.G.A.R.V.C.Y.R.R.C.N}$PEPTIDE1,PEPTIDE1,3:R3-20:R3|PEPTIDE1,PEPTIDE1,7:R3-16:R3$$$V2.0), in experiment [6] (ATCC 25922), the “MIC, MHB” value amounted to 0.125 µg/mL (≈ 0.049 µM). In addition, the results for the “Agar (Noble) Dilution MIC” value in experiment [5] (P. aeruginosa ATCC 27853) and in experiment [5] (P. aeruginosa UNT138-1) were 8 µg/mL and 16 µg/mL, respectively. Also, the “MIC against colistin-resistant isolates (did not surpass)” value in experiment [1] (E. coli with a colistin MIC of 4 to 16 μg mL^−1, US panel) was at most 0.5 µg/mL; in experiment [2] (all but two K. pneumoniae isolates with a colistin MIC of 8–≥32 μg mL^−1, US panel), at most 4 µg/mL; in experiment [3] (P. aeruginosa with a colistin MIC of >32 μg mL^−1, US panel), at most 8 µg/mL. Moreover, the MIC90 in experiment [1] (US isolates 2010–2012, E. coli MDR, n = 31) came to 0.5 µg/mL (≈ 0.196 µM); in experiment [1] (Worldwide isolates 2011–2013, E. coli incl. non-MDR, MDR, XDR, n = 112) it was 0.5 µg/mL (≈ 0.196 µM); in experiment [2] (US isolates 2010–2012, K. pneumoniae Non-MDR, n = 24) it was 4 µg/mL (≈ 1.57 µM); in experiment [2] (Worldwide isolates 2011–2013, K. pneumoniae incl. non-MDR, MDR, XDR, n = 114) it was 4 µg/mL (≈ 1.57 µM); in experiment [3] (US isolates 2010–2012, P. aeruginosa Non-MDR, n = 41), 8 µg/mL (≈ 3.14 µM); in experiment [3] (US isolates 2010–2012, P. aeruginosa XDR, n = 37) it was 4 µg/mL (≈ 1.57 µM). For the same molecule, in experiment [3] (Worldwide isolates 2011–2013, P. aeruginosa incl. non-MDR, MDR, XDR, n = 111), the MIC90 came out at 8 µg/mL (≈ 3.14 µM). The “MIC90 (E. coli)” value in experiment [1] (clinical isolates) came out at 1.0 µg/mL (≈ 0.392 µM). In experiment [3] (clinical isolates), the “MIC90 (P. aeruginosa)” value was determined as 8.0 µg/mL (≈ 3.14 µM). Moreover, the ED50 in blood in experiment [4] (mouse, in vivo, iv) was determined as 1.55 mg/kg. In addition, the “ED50 in peritoneal fluid” value in experiment [4] (mouse, in vivo, iv) worked out at 1.85 mg/kg.
